Activity calls are given as the source filed them. The calls are words filed in the database; no cut-off is given here.
Assays:
BXPC-3 [1] = experiment: Anticlonogenic activity against human BXPC-3 cells assessed as reduction in colony formation at 0.25 umol/L incubated for 10 days by crystal violet staining based assay; type: functional, cell-based; settings: dose 0.25 µmol/L, time 10.0 day
Mus musculus [2] = experiment: Downregulation of Ki67 expression in BALB/c mouse allografted with mouse Panc02 cells […] at 50 mg/kg, ip administered every day measured after 20 days by immunohistochemical analysis; type: functional, organism-based; settings: time 20.0 day
BXPC-3 [3] = experiment: Induction of apoptosis in human BXPC-3 cells assessed as early apoptotic cells at 4 uM measured after 48 hrs by AnnexinV/propidium iodide staining based flow cytometry (reference value: 1.02 %); type: functional
BXPC-3 [4] = experiment: Cell cycle arrest in human BXPC-3 cells assessed as acumulation at G0/G1 phase by measuring upregulation of p27 at 4 to 16 uM measured after 48 hrs by Western blot analysis; type: functional, cell-based; settings: dose 4-16 µM
BXPC-3 [5] = experiment: Cell cycle arrest in human BXPC-3 cells assessed as accumulation at G1/S phase by measuring upregulation of p57 measured after 48 hrs by Western blot analysis; type: functional, cell-based; settings: dose 4-16 µM
Mus musculus [6] = experiment: Decrease in c-Myc expression in BALB/c mouse allografted with mouse Panc02 cells […] at 50 mg/kg, ip administered every day in combination with gemcitabine at 100 mg/kg measured after 20 days by immunohistochemical analysis; type: functional, organism-based; settings: time 20.0 day
BXPC-3 [7] = experiment: Inhibition of BRD4 protein expression in human BXPC-3 cells at 4 to 16 uM measured after 48 hrs by Western blot analysis; type: functional, cell-based; settings: dose 4-16 µM
BXPC-3 [8] = experiment: Induction of morphological changes in human BXPC-3 cells assessed as assessed as increase in apoptotic cells at 8 uM measured after 48 hrs by light microscopic analysis; type: functional, cell-based
Mus musculus [9] = experiment: Decrease in c-Myc expression in BALB/c mouse allografted with mouse Panc02 cells […] at 50 mg/kg, ip administered every day measured after 20 days by immunohistochemical analysis; type: functional, organism-based; settings: time 20.0 day
BXPC-3 [10] = experiment: Cell cycle arrest in human BXPC-3 cells assessed as acumulation at G0/G1 phase by measuring downregulation of CDK4 at 4 to 16 uM measured after 48 hrs by Western blot analysis; type: functional, cell-based; settings: dose 4-16 µM
BXPC-3 [11] = experiment: Cell cycle arrest in human BXPC-3 cells assessed as acumulation at G0/G1 phase by measuring downregulation of CyclinD1 at 4 to 16 uM measured after 48 hrs by Western blot analysis; type: functional, cell-based; settings: dose 4-16 µM
SMMC-7721 = experiment: Antiproliferative activity against human SMMC-7721 cells assessed as cell growth inhibition at 2 uM measured after 48 to 72 hrs by MTT assay relative to control; type: functional; settings: time 48-72 hrs, read-out: GI
[12] = Toxicity in BALB/c mouse allografted with mouse Panc02 cells assessed as effect on body weight at 50 mg/kg, ip administered every day measured after 19 days; type: organism-based; settings: in vivo, 456 h, time 19 day
Panc02 [13] = experiment: Induction of apoptosis in mouse Panc02 cells allografted in BALB/c mouse assessed as condensed chromatin at 50 mg/kg, ip administered every day in combination with gemcitabine at 100 mg/kg measured after 20 days by hematoxylin and eosin staining based assay; type: functional, organism-based; settings: time 20.0 day
BXPC-3 [14] = experiment: Cell cycle arrest in human BXPC-3 cells assessed as accumulation at sub-G1 phase at 8 to 16 uM measured after 48 hrs by AnnexinV-FITC/propidium iodide staining based flow cytometry; type: functional; settings: dose 8-16 µM
BXPC-3 [15] = experiment: Cell cycle arrest in human BXPC-3 cells assessed as acumulation at G0/G1 phase by measuring downregulation of CDK2 at 4 to 16 uM measured after 48 hrs by Western blot analysis; type: functional, cell-based; settings: dose 4-16 µM
BXPC-3 [16] = experiment: Cell cycle arrest in human BXPC-3 cells assessed as accumulation at G0/G1 phase measured after 48 hrs by AnnexinV-FITC/propidium iodide staining based flow cytometry; type: functional; settings: dose 4-16 µM
BXPC-3 [17] = experiment: Cell cycle arrest in human BXPC-3 cells assessed as acumulation at G0/G1 phase by measuring downregulation of CyclinE1 at 4 to 16 uM measured after 48 hrs by Western blot analysis; type: functional, cell-based; settings: dose 4-16 µM
BXPC-3 [18] = experiment: Inhibition of c-Myc protein expression in human BXPC-3 cells at 4 to 16 uM measured after 48 hrs by Western blot analysis; type: functional, cell-based; settings: dose 4-16 µM
BXPC-3 [19] = experiment: Induction of apoptosis in human BXPC-3 cells assessed as early apoptotic cells at 8 uM measured after 48 hrs by AnnexinV/propidium iodide staining based flow cytometry (reference value: 1.02 %); type: functional
BXPC-3 [20] = experiment: Induction of apoptosis in human BXPC-3 cells assessed as increase in cytochrome C expression at 4 to 16 uM measured after 48 hrs by Western blot analysis; type: functional, cell-based; settings: dose 4-16 µM
[21] = molecular target: Bromodomain-containing protein 4 (Homo sapiens, UniProt O60885); experiment: Inhibition of BRD4 (unknown origin) preincubated for 15 mins followed by substrate addition and measured after 1 hr by AlphaScreen assay relative to control
BXPC-3 [22] = experiment: Cell cycle arrest in human BXPC-3 cells assessed as decrease in cell population at G2/M phase at 4 to 16 uM measured after 48 hrs by AnnexinV-FITC/propidium iodide staining based flow cytometry; type: functional; settings: dose 4-16 µM
BXPC-3 [23] = experiment: Induction of apoptotic cell death in human BXPC-3 cells at 4 to 16 uM measured after 48 hrs by Live/Dead dye based inverted fluorescence microscopic analysis; type: functional; settings: dose 4-16 µM
BXPC-3 [24] = experiment: Cell cycle arrest in human BXPC-3 cells assessed as acumulation at G0/G1 phase by measuring downregulation of CyclinA2 at 4 to 16 uM measured after 48 hrs by Western blot analysis; type: functional, cell-based; settings: dose 4-16 µM
Mus musculus [25] = experiment: Upregulation of caspase 3 in BALB/c mouse allografted with mouse Panc02 cells […] at 50 mg/kg, ip administered every day in combination with gemcitabine at 100 mg/kg measured after 20 days by immunohistochemical analysis; type: functional, organism-based; settings: time 20.0 day
BXPC-3 [26] = experiment: Induction of apoptosis in human BXPC-3 cells assessed as late apoptotic cells at 8 uM measured after 48 hrs by AnnexinV/propidium iodide staining based flow cytometry (reference value: 5.15 %); type: functional
BXPC-3 [27] = experiment: Induction of apoptosis in human BXPC-3 cells assessed as late apoptotic cells at 16 uM measured after 48 hrs by AnnexinV/propidium iodide staining based flow cytometry (reference value: 1.02 %); type: functional
BXPC-3 [28] = experiment: Induction of apoptosis in human BXPC-3 cells assessed as early apoptotic cells at 16 uM measured after 48 hrs by AnnexinV/propidium iodide staining based flow cytometry (reference value: 1.02 %); type: functional
BXPC-3 [29] = experiment: Induction of apoptosis in human BXPC-3 cells assessed as late apoptotic cells at 4 uM measured after 48 hrs by AnnexinV/propidium iodide staining based flow cytometry (reference value: 5.15 %); type: functional
Mus musculus [30] = experiment: Downregulation of Ki67 expression in BALB/c mouse allografted with mouse Panc02 cells […] at 50 mg/kg, ip administered every day in combination with gemcitabine at 100 mg/kg measured after 20 days by immunohistochemical analysis; type: functional, organism-based; settings: time 20.0 day
BXPC-3 [31] = experiment: Cell cycle arrest in human BXPC-3 cells assessed as accumulation at G1/S phase by measuring upregulation of Rb at 4 to 16 uM measured after 48 hrs by Western blot analysis; type: functional, cell-based; settings: dose 4-16 µM
Panc02 [32] = experiment: Induction of apoptosis in mouse Panc02 cells allografted in BALB/c mouse assessed as condensed chromatin at 50 mg/kg, ip administered every day measured after 20 days by hematoxylin and eosin staining based assay; type: functional, organism-based; settings: time 20.0 day

IC50 [21]: 35 nM
SMILES: CCS(=O)(=O)Nc1ccc(Oc2ccccc2F)c(-c2cn(C)c(=O)c3cncn23)c1
Activity (BXPC-3 [1]): Active
Activity (Mus musculus [2]): Active
Activity (BXPC-3 [3]): 1.46%
Activity (BXPC-3 [4]): Active
Activity (BXPC-3 [5]): Active
Activity (Mus musculus [6]): Active
inhibition (BXPC-3 [7]): Active
Activity (BXPC-3 [8]): Active
Activity (Mus musculus [9]): Active
Activity (BXPC-3 [10]): Active
Activity (BXPC-3 [11]): Active
inhibition of growth at 2 µM (SMMC-7721): 15.1%
Activity [12]: Non-Toxic
Activity (Panc02 [13]): Active
Activity (BXPC-3 [14]): Active
Activity (BXPC-3 [15]): Active
Activity (BXPC-3 [16]): Dose-dependent effect
Activity (BXPC-3 [17]): Active
inhibition (BXPC-3 [18]): Active
Activity (BXPC-3 [19]): 1.61%
Activity (BXPC-3 [20]): Active
Activity (BXPC-3 [22]): Active
Activity (BXPC-3 [23]): Active
Activity (BXPC-3 [24]): Active
Activity (Mus musculus [25]): Active
Activity (BXPC-3 [26]): 12.36%
Activity (BXPC-3 [27]): 19.21%
Activity (BXPC-3 [28]): 2.35%
Activity (BXPC-3 [29]): 8.59%
Activity (Mus musculus [30]): Active
Activity (BXPC-3 [31]): Active
Activity (Panc02 [32]): Active

Source: ChEMBL document CHEMBL4673289, “Design, synthesis and biological evaluation of imidazolopyridone derivatives as novel BRD4 inhibitors” (Bioorg Med Chem, 2021)
